Experimental data reported in patent US8933094B2, “Ethynyl compounds useful for treatment of CNS disorder” (Hoffmann-La Roche Inc., priority 2009, dated 2015).

Target: T1, human mGlu5a receptor (Homo sapiens, UniProt P41594)
T1 construct: expressed in transfected cells
Assay: Intracellular Ca2+ mobilization assay (mGlu5 PAM)
Type: cell-based
Details: for EC50: HEK-293 cells stably transfected with human mGlu5a, L-glutamate added at EC20 after 10-30 min pre-incubation with test compound, read-out: EC50 (nM) mGlu5PAM; for Emax: maximal response in % of the maximal stimulatory effect obtained with saturating concentrations of L-glutamate, read-out: Eff. (%)
Procedure: A monoclonal HEK-293 cell line stably transfected with a cDNA encoding for the human mGlu5a receptor was generated; for the work with mGlu5 Positive Allosteric Modulators (PAMs), a cell line with low receptor expression levels and low constitutive receptor activity was selected to allow the differentiation of agonistic versus PAM activity. Cells were cultured according to standard protocols (Freshney, 2000) in Dulbecco's Modified Eagle Medium with high glucose supplemented with 1 mM glutamine, 10% (vol/vol) heat-inactivated bovine calf serum, Penicillin/Streptomycin, 50 μg/ml hygromycin and 15 μg/ml blasticidin (all cell culture reagents and antibiotics from Invitrogen, Basel, Switzerland).
About 24 hrs before an experiment, 5×10^4 cells/well were seeded in poly-D-lysine coated, black/clear-bottomed 96-well plates. The cells were loaded with 2.5 μM Fluo-4AM in loading buffer (1×HBSS, 20 mM HEPES) for 1 hr at 37° C. and washed five times with loading buffer. The cells were transferred into a Functional Drug Screening System 7000 (Hamamatsu, Paris, France), and 11 half logarithmic serial dilutions of test compound at 37° C. were added and the cells were incubated for 10-30 min. with on-line recording of fluorescence. Following this pre-incubation step, the agonist L-glutamate was added to the cells at a concentration corresponding to EC20 (typically around 80 μM) with on-line recording of fluorescence; in order to account for day-to-day variations in the responsiveness of cells, the EC20 of glutamate was determined immediately ahead of each experiment by recording of a full dose-response curve of glutamate.
Responses were measured as peak increase in fluorescence minus basal (i.e. fluorescence without addition of L-glutamate), normalized to the maximal stimulatory effect obtained with saturating concentrations of L-glutamate. Graphs were plotted with the % maximal stimulatory using XLfit, a curve fitting program that iteratively plots the data using Levenburg Marquardt algorithm. The single site competition analysis equation used was y=A+((B−A)/(1+((x/C)D))), where y is the % maximal stimulatory effect, A is the minimum y, B is the maximum y, C is the EC50, x is the log 10 of the concentration of the competing compound and D is the slope of the curve (the Hill Coefficient). From these curves the EC50 (concentration at which half maximal stimulation was achieved), the Hill coefficient as well as the maximal response in % of the maximal stimulatory effect obtained with saturating concentrations of L-glutamate were calculated.
A depression of the signal observed after addition of the EC20 concentration of L-glutamate was indicative of an inhibitory activity of the test compound.

T1 sequence (P41594 21-1180 isoform P41594-2 limits assumed): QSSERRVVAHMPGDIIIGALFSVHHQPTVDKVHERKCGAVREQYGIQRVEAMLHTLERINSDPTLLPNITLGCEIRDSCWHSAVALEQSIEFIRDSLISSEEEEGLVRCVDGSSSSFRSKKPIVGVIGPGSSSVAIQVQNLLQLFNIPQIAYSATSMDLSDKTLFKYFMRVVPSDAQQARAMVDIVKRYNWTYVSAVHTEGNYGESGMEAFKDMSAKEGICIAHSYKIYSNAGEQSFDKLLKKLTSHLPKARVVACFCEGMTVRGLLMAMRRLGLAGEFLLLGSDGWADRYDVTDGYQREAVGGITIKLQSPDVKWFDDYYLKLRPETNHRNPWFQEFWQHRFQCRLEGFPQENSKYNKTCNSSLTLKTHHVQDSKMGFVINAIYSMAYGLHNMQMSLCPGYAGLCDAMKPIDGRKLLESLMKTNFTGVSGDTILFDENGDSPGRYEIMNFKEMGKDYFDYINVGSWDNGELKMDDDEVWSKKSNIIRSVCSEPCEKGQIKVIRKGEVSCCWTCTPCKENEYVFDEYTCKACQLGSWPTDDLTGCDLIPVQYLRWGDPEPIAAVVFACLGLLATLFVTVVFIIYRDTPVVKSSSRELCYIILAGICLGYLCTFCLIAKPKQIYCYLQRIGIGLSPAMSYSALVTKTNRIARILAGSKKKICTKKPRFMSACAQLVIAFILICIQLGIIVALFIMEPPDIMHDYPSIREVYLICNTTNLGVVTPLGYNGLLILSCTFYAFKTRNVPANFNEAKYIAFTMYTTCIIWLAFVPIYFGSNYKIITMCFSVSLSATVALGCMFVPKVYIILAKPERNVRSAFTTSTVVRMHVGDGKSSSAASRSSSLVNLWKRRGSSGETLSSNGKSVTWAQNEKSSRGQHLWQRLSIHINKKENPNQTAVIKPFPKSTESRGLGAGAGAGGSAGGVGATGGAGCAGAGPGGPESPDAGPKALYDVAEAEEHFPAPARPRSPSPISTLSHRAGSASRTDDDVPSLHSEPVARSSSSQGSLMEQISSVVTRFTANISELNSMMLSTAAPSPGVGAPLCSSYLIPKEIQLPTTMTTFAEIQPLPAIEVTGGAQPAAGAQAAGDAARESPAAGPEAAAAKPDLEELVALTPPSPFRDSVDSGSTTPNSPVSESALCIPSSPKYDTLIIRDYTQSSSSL

| EC50 [nM] | Emax [%] | Structure (SMILES) |
| --- | --- | --- |
| 58 | 84 | Cc1cccc(C#Cc2cnc3nc(N4CCOCC4)nn3c2)c1 [Example 48, 2-Morpholin-4-yl-6-m-tolylethynyl-[1,2,4]triazolo[1,5-a]pyrimidine] |
| 181 | 68 | CC(C)(C)c1cc2ncc(C#Cc3cncnc3)cn2n1 [Example 24, 2-tert-Butyl-6-pyrimidin-5-ylethynyl-pyrazolo[1,5-a]pyrimidine] |
| 310 | 63 | N#Cc1cnn2cc(C#Cc3ccccc3)cnc12 [Example 30, 6-Phenylethynyl-pyrazolo[1,5-a]pyrimidine-3-carbonitrile] |
| 183 | 77 | CC(C)(C)c1cc2ncc(C#Cc3ccc(Cl)nc3)cn2n1 [Example 21, 2-tert-Butyl-6-(6-chloro-pyridin-3-ylethynyl)-pyrazolo[1,5-a]pyrimidine] |
| 47 | 81 | Cc1cc2ncc(C#Cc3ccccc3F)cn2n1 [Example 3, 6-(2-Fluoro-phenylethynyl)-2-methyl-pyrazolo[1,5-a]pyrimidine] |
| 32 | 122 | CC(C)(C)c1cc2ccc(C#Cc3ccccc3)cn2n1 [Example 41, 2-tert-Butyl-6-phenylethynyl-pyrazolo[1,5-a]pyridine] |
| 152 | 59 | CC(C)(O)c1cc2ncc(C#Cc3ccccc3)cn2n1 [Example 28, 2-(6-Phenylethynyl-pyrazolo[1,5-a]pyrimidin-2-yl)-propan-2-ol] |
| 400 | 89 | CC(C)(C)c1cc2ncc(C#Cc3ccc(Cl)cc3)cn2n1 [Example 20, 2-tert-Butyl-6-(4-chloro-phenylethynyl)-pyrazolo[1,5-a]pyrimidine] |
| 5 | 86 | CC(C)(C)c1cc2ncc(C#Cc3cccc(F)c3)cn2n1 [Example 11, 2-tert-Butyl-6-(3-fluoro-phenylethynyl)-pyrazolo[1,5-a]pyrimidine] |
| 498 | 82 | Cc1cc2ncc(C#Cc3ccncc3)cn2n1 [Example 6, 2-Methyl-6-pyridin-4-ylethynyl-pyrazolo[1,5-a]pyrimidine] |
| 182 | 102 | C(#Cc1cnc2cc(C3CCC3)nn2c1)c1ccccc1 [Example 18, 2-Cyclobutyl-6-phenylethynyl-pyrazolo[1,5-a]pyrimidine] |
| 41 | 99 | CC(C)(C)c1cc2ncc(C#Cc3ccc(N)cc3)cn2n1 [Example 27, 4-(2-tert-Butyl-pyrazolo[1,5-a]pyrimidin-6-ylethynyl)-phenylamine] |
| 78 | 74 | Cc1cc2ncc(C#Cc3ccc(F)cc3)cn2n1 [Example 5, 6-(4-Fluoro-phenylethynyl)-2-methyl-pyrazolo[1,5-a]pyrimidine] |
| 68 | 53 | COc1ccc(C#Cc2cnc3cc(C(C)(C)C)nn3c2)cc1 [Example 15, 2-tert-Butyl-6-(4-methoxy-phenylethynyl)-pyrazolo[1,5-a]pyrimidine] |
| 70 | 116 | C(#Cc1cnc2ccnn2c1)c1ccccc1 [Example 1, 6-Phenylethynyl-pyrazolo[1,5-a]pyrimidine] |
| 9 | 85 | CC(C)(C)c1nc2ncc(C#Cc3cccc(F)c3)cn2n1 [Example 44, 2-tert-Butyl-6-(3-fluoro-phenylethynyl)-[1,2,4]triazolo[1,5-a]pyrimidine] |
| 9 | 73 | CC(C)(C)c1nc2ncc(C#Cc3ccccc3)cn2n1 [Example 42, 2-tert-Butyl-6-phenylethynyl-[1,2,4]triazolo[1,5-a]pyrimidine] |
| 4 | 37 | CC(C)(C)c1cc2ncc(C#Cc3ccncc3)cn2n1 [Example 14, 2-tert-Butyl-6-pyridin-4-ylethynyl-pyrazolo[1,5-a]pyrimidine] |
| 45 | 93 | CC(C)(C)c1cc2ncc(C#Cc3ccc(F)c(F)c3)cn2n1 [Example 25, 2-tert-Butyl-6-(3,4-difluoro-phenylethynyl)-pyrazolo[1,5-a]pyrimidine] |
| 30 | 54 | CC(C)(C)c1nc2ccc(C#Cc3ccccc3)cn2n1 [Example 39, 2-tert-Butyl-6-phenylethynyl-[1,2,4]triazolo[1,5-a]pyridine] |

| EC50 [nM] | Emax [%] | Structure (SMILES) |
| --- | --- | --- |
| 47 | 49 | CC(C)(C)c1nc2ncc(C#Cc3cncc(Cl)c3)cn2n1 [Example 46, 2-tert-Butyl-6-(5-chloro-pyridin-3-ylethynyl)-[1,2,4]triazolo[1,5-a]pyrimidine] |
| 19 | 80 | CC(C)(C)c1cc2ncc(C#Cc3ccccc3F)cn2n1 [Example 10, 2-tert-Butyl-6-(2-fluoro-phenylethynyl)-pyrazolo[1,5-a]pyrimidine] |
| 49 | 99 | Cc1cc2ncc(C#Cc3ccccc3)cn2n1 [Example 2, 2-Methyl-6-phenylethynyl-pyrazolo[1,5-a]pyrimidine] |
| 148 | 69 | Cc1cc2ncc(C#Cc3ccc(Cl)cc3)cn2n1 [Example 8, 6-(4-Chloro-phenylethynyl)-2-methyl-pyrazolo[1,5-a]pyrimidine] |
| 472 | 124 | C(#Cc1cnc2cc(C3CCOCC3)nn2c1)c1ccccc1 [Example 26, 6-Phenylethynyl-2-(tetrahydro-pyran-4-yl)-pyrazolo[1,5-a]pyrimidine] |
| 104 | 41 | COc1cccc(C#Cc2cnc3cc(C(C)(C)C)nn3c2)c1 [Example 17, 2-tert-Butyl-6-(3-methoxy-phenylethynyl)-pyrazolo[1,5-a]pyrimidine] |
| 50 | 77 | C(#Cc1ccc2cnnn2c1)c1ccccc1 [Example 34, 6-Phenylethynyl-[1,2,3]triazolo[1,5-a]pyridine] |
| 136 | 88 | C(#Cc1ccc2ccnn2c1)c1ccccc1 [Example 33, 6-Phenylethynyl-pyrazolo[1,5-a]pyridine] |
| 7 | 75 | CC(C)(C)c1cc2ncc(C#Cc3ccc(F)cc3)cn2n1 [Example 12, 2-tert-Butyl-6-(4-fluoro-phenylethynyl)-pyrazolo[1,5-a]pyrimidine] |
| 255 | 98 | CC(C)(C)c1cc2ncc(C#Cc3ccc(N)nc3)cn2n1 [Example 22, 5-(2-tert-Butyl-pyrazolo[1,5-a]pyrimidin-6-ylethynyl)-pyridin-2-ylamine] |
| 56 | 141 | C(#Cc1cnc2nc(N3CCCC3)nn2c1)c1ccccc1 [Example 51, 6-Phenylethynyl-2-pyrrolidin-1-yl-[1,2,4]triazolo[1,5-a]pyrimidine] |
| 155 | 88 | CC(C)(C)c1cc2ncc(C#Cc3ccccc3N)cn2n1 [Example 36, 2-(2-tert-Butyl-pyrazolo[1,5-a]pyrimidin-6-ylethynyl)-phenylamine] |
| 39 | 88 | Clc1cccc(C#Cc2cnc3nc(N4CCOCC4)nn3c2)c1 [Example 50, 6-(3-Chloro-phenylethynyl)-2-morpholin-4-yl-[1,2,4]triazolo[1,5-a]pyrimidine] |
| 66 | 88 | CC(C)(CO)c1nc2ccc(C#Cc3ccccc3)cn2n1 [Example 40, 2-Methyl-2-(6-phenylethynyl-[1,2,4]triazolo[1,5-a]pyridin-2-yl)-propan-1-ol] |
| 37 | 69 | CC(C)(C)c1cc2ncc(C#Cc3cccc(N)c3)cn2n1 [Example 35, 3-(2-tert-Butyl-pyrazolo[1,5-a]pyrimidin-6-ylethynyl)-phenylamine] |
| 42 | 77 | Cc1cc2ncc(C#Cc3cccc(F)c3)cn2n1 [Example 4, 6-(3-Fluoro-phenylethynyl)-2-methyl-pyrazolo[1,5-a]pyrimidine] |
| 14 | 37 | CC(C)(C)c1nc2ncc(C#Cc3cc(F)ccc3F)cn2n1 [Example 43, 2-tert-Butyl-6-(2,5-difluoro-phenylethynyl)-[1,2,4]triazolo[1,5-a]pyrimidine] |
| 5 | 75 | CC(C)(C)c1cc2ncc(C#Cc3ccccc3)cn2n1 [Example 9, 2-tert-Butyl-6-phenylethynyl-pyrazolo[1,5-a]pyrimidine] |
| 69 | 119 | C(#Cc1cnc2nc(N3CCOCC3)nn2c1)c1ccccc1 [Example 47, 2-Morpholin-4-yl-6-phenylethynyl-[1,2,4]triazolo[1,5-a]pyrimidine] |
